# PubChem BioAssay (NCI)
#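 Interpolation was linear, between the two tested concentrations surrounding the appropriate level; five concentrations were tested over 48 hours in 96-well plates. Abbreviation: GI50, concentration required for 50% inhibition of growth. Definition used: TGI = concentration required for complete inhibition of growth.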
# Tested on: M14 melanoma
# Assay: NCI tumour cell line growth inhibition, 48 h
SMILES,GI50,TGI
CC[CH2][Sn]([CH2]CC)([O]C(=O)c1cccnc1SC)[O][Sn]([CH2]CC)([CH2]CC)[O]C(=O)c1cccnc1SC,0.513 µM,1.38 µM
N#Cc1cc([N+](=O)[O-])ccc1NC(=O)C(=O)Nc1n[nH]c(N)n1,,> 100 µM
O=C(/C=C/c1c(O)ccc2ccccc12)c1cccc(O)c1,,> 100 µM
CC1=NN(C(=O)Nc2ccccc2)C(=O)C2CCC(=O)N12 (stereo not given),,> 100 µM
COC(=O)C1Cc2c(n(Cc3ccccc3)c3ccccc23)C(CCC(=O)O)N1C(C)C (stereo not given),,> 100 µM
CC(C)(C)C1C=C(Sc2ccccc2)C(=O)O1 (stereo not given),,> 100 µM
CCC[CH2][Sn]1([CH2]CCC)[O]Cc2nc(C)ccc2[O]1,10.9 µM,23.5 µM
O=c1/c(=C/c2ccco2)sc2nc3ccccc3n12,> 100 µM,> 100 µM
C/C(CC(=O)Nc1ccc(C)cc1C)=N/N=C(N)N,,> 100 µM

# Tested on: HCC-2998 colon
# Assay: NCI tumour cell line growth inhibition, 48 h
SMILES,GI50,TGI
CC[CH2][Sn]([CH2]CC)([O]C(=O)c1cccnc1SC)[O][Sn]([CH2]CC)([CH2]CC)[O]C(=O)c1cccnc1SC,0.642 µM,1.92 µM
N#Cc1cc([N+](=O)[O-])ccc1NC(=O)C(=O)Nc1n[nH]c(N)n1,,> 100 µM
O=C(/C=C/c1c(O)ccc2ccccc12)c1cccc(O)c1,,> 100 µM
CC1=NN(C(=O)Nc2ccccc2)C(=O)C2CCC(=O)N12 (stereo not given),,> 100 µM
COC(=O)C1Cc2c(n(Cc3ccccc3)c3ccccc23)C(CCC(=O)O)N1C(C)C (stereo not given),,> 100 µM
CC(C)(C)C1C=C(Sc2ccccc2)C(=O)O1 (stereo not given),,> 100 µM
CCC[CH2][Sn]1([CH2]CCC)[O]Cc2nc(C)ccc2[O]1,7.86 µM,21.3 µM
O=c1/c(=C/c2ccco2)sc2nc3ccccc3n12,> 100 µM,> 100 µM
C/C(CC(=O)Nc1ccc(C)cc1C)=N/N=C(N)N,,> 100 µM

# Tested on: DU-145 prostate
# Assay: NCI tumour cell line growth inhibition, 48 h
SMILES,GI50,TGI
CC[CH2][Sn]([CH2]CC)([O]C(=O)c1cccnc1SC)[O][Sn]([CH2]CC)([CH2]CC)[O]C(=O)c1cccnc1SC,2.37 µM,7.11 µM

# Tested on: BT-549 breast
# Assay: NCI tumour cell line growth inhibition, 48 h
SMILES,GI50,TGI
CC[CH2][Sn]([CH2]CC)([O]C(=O)c1cccnc1SC)[O][Sn]([CH2]CC)([CH2]CC)[O]C(=O)c1cccnc1SC,1.41 µM,2.71 µM

# Tested on: A549 NSCLC
# Assay: NCI tumour cell line growth inhibition, 48 h
SMILES,GI50,TGI
CC[CH2][Sn]([CH2]CC)([O]C(=O)c1cccnc1SC)[O][Sn]([CH2]CC)([CH2]CC)[O]C(=O)c1cccnc1SC,3.2 µM,6.24 µM
N#Cc1cc([N+](=O)[O-])ccc1NC(=O)C(=O)Nc1n[nH]c(N)n1,,> 100 µM
O=C(/C=C/c1c(O)ccc2ccccc12)c1cccc(O)c1,,> 100 µM
CC1=NN(C(=O)Nc2ccccc2)C(=O)C2CCC(=O)N12 (stereo not given),,> 100 µM
COC(=O)C1Cc2c(n(Cc3ccccc3)c3ccccc23)C(CCC(=O)O)N1C(C)C (stereo not given),,> 100 µM
CC(C)(C)C1C=C(Sc2ccccc2)C(=O)O1 (stereo not given),,> 100 µM
CCC[CH2][Sn]1([CH2]CCC)[O]Cc2nc(C)ccc2[O]1,19 µM,33.1 µM
O=c1/c(=C/c2ccco2)sc2nc3ccccc3n12,> 100 µM,> 100 µM
C/C(CC(=O)Nc1ccc(C)cc1C)=N/N=C(N)N,,> 100 µM

# Tested on: DMS 273 small cell lung
# Assay: NCI tumour cell line growth inhibition, 48 h
SMILES,GI50,TGI
CC[CH2][Sn]([CH2]CC)([O]C(=O)c1cccnc1SC)[O][Sn]([CH2]CC)([CH2]CC)[O]C(=O)c1cccnc1SC,0.367 µM,1.69 µM
N#Cc1cc([N+](=O)[O-])ccc1NC(=O)C(=O)Nc1n[nH]c(N)n1,,> 100 µM
O=C(/C=C/c1c(O)ccc2ccccc12)c1cccc(O)c1,,> 100 µM
CC1=NN(C(=O)Nc2ccccc2)C(=O)C2CCC(=O)N12 (stereo not given),,> 100 µM
COC(=O)C1Cc2c(n(Cc3ccccc3)c3ccccc23)C(CCC(=O)O)N1C(C)C (stereo not given),,> 100 µM
CC(C)(C)C1C=C(Sc2ccccc2)C(=O)O1 (stereo not given),,> 100 µM
CCC[CH2][Sn]1([CH2]CCC)[O]Cc2nc(C)ccc2[O]1,11 µM,22.9 µM
O=c1/c(=C/c2ccco2)sc2nc3ccccc3n12,> 10 µM,> 100 µM
C/C(CC(=O)Nc1ccc(C)cc1C)=N/N=C(N)N,,> 100 µM

# Tested on: NCI-H460 lung
# Assay: NCI tumour cell line growth inhibition, 48 h
SMILES,GI50,TGI
CC[CH2][Sn]([CH2]CC)([O]C(=O)c1cccnc1SC)[O][Sn]([CH2]CC)([CH2]CC)[O]C(=O)c1cccnc1SC,1.99 µM,4.94 µM
N#Cc1cc([N+](=O)[O-])ccc1NC(=O)C(=O)Nc1n[nH]c(N)n1,,> 100 µM
O=C(/C=C/c1c(O)ccc2ccccc12)c1cccc(O)c1,,> 100 µM
CC1=NN(C(=O)Nc2ccccc2)C(=O)C2CCC(=O)N12 (stereo not given),,> 100 µM
COC(=O)C1Cc2c(n(Cc3ccccc3)c3ccccc23)C(CCC(=O)O)N1C(C)C (stereo not given),,> 100 µM
CC(C)(C)C1C=C(Sc2ccccc2)C(=O)O1 (stereo not given),,> 100 µM
CCC[CH2][Sn]1([CH2]CCC)[O]Cc2nc(C)ccc2[O]1,16 µM,31.1 µM
O=c1/c(=C/c2ccco2)sc2nc3ccccc3n12,> 100 µM,> 100 µM
C/C(CC(=O)Nc1ccc(C)cc1C)=N/N=C(N)N,,> 100 µM

# Tested on: OVCAR-8 ovarian
# Assay: NCI tumour cell line growth inhibition, 48 h
SMILES,GI50,TGI
CC[CH2][Sn]([CH2]CC)([O]C(=O)c1cccnc1SC)[O][Sn]([CH2]CC)([CH2]CC)[O]C(=O)c1cccnc1SC,0.599 µM,1.92 µM
N#Cc1cc([N+](=O)[O-])ccc1NC(=O)C(=O)Nc1n[nH]c(N)n1,,> 100 µM
O=C(/C=C/c1c(O)ccc2ccccc12)c1cccc(O)c1,,> 100 µM
CC1=NN(C(=O)Nc2ccccc2)C(=O)C2CCC(=O)N12 (stereo not given),,> 100 µM
COC(=O)C1Cc2c(n(Cc3ccccc3)c3ccccc23)C(CCC(=O)O)N1C(C)C (stereo not given),,> 100 µM
CC(C)(C)C1C=C(Sc2ccccc2)C(=O)O1 (stereo not given),,> 100 µM
CCC[CH2][Sn]1([CH2]CCC)[O]Cc2nc(C)ccc2[O]1,9.1 µM,21.7 µM
O=c1/c(=C/c2ccco2)sc2nc3ccccc3n12,> 100 µM,> 100 µM
C/C(CC(=O)Nc1ccc(C)cc1C)=N/N=C(N)N,,> 100 µM

# Tested on: DMS 114 small cell lung
# Assay: NCI tumour cell line growth inhibition, 48 h
SMILES,GI50,TGI
CC[CH2][Sn]([CH2]CC)([O]C(=O)c1cccnc1SC)[O][Sn]([CH2]CC)([CH2]CC)[O]C(=O)c1cccnc1SC,0.0726 µM,0.222 µM
N#Cc1cc([N+](=O)[O-])ccc1NC(=O)C(=O)Nc1n[nH]c(N)n1,,> 100 µM
O=C(/C=C/c1c(O)ccc2ccccc12)c1cccc(O)c1,,> 77.3 µM
CC1=NN(C(=O)Nc2ccccc2)C(=O)C2CCC(=O)N12 (stereo not given),,> 100 µM
COC(=O)C1Cc2c(n(Cc3ccccc3)c3ccccc23)C(CCC(=O)O)N1C(C)C (stereo not given),,> 100 µM
CC(C)(C)C1C=C(Sc2ccccc2)C(=O)O1 (stereo not given),,> 100 µM
CCC[CH2][Sn]1([CH2]CCC)[O]Cc2nc(C)ccc2[O]1,3.07 µM,9.3 µM
O=c1/c(=C/c2ccco2)sc2nc3ccccc3n12,> 100 µM,> 100 µM
C/C(CC(=O)Nc1ccc(C)cc1C)=N/N=C(N)N,,> 100 µM

# Tested on: HL-60(TB) leukemia
# Assay: NCI tumour cell line growth inhibition, 48 h
SMILES,GI50,TGI
CC[CH2][Sn]([CH2]CC)([O]C(=O)c1cccnc1SC)[O][Sn]([CH2]CC)([CH2]CC)[O]C(=O)c1cccnc1SC,0.26 µM,4.24 µM
N#Cc1cc([N+](=O)[O-])ccc1NC(=O)C(=O)Nc1n[nH]c(N)n1,,> 100 µM
O=C(/C=C/c1c(O)ccc2ccccc12)c1cccc(O)c1,,> 64.3 µM
CC1=NN(C(=O)Nc2ccccc2)C(=O)C2CCC(=O)N12 (stereo not given),,> 100 µM
COC(=O)C1Cc2c(n(Cc3ccccc3)c3ccccc23)C(CCC(=O)O)N1C(C)C (stereo not given),,> 100 µM
CC(C)(C)C1C=C(Sc2ccccc2)C(=O)O1 (stereo not given),,55.7 µM
CCC[CH2][Sn]1([CH2]CCC)[O]Cc2nc(C)ccc2[O]1,1.58 µM,4.64 µM
O=c1/c(=C/c2ccco2)sc2nc3ccccc3n12,> 100 µM,> 100 µM
C/C(CC(=O)Nc1ccc(C)cc1C)=N/N=C(N)N,,> 100 µM
